In patent US4576945A, “Hexaalkylmelamine-amino-oxy compounds” (priority 1984, dated 1986):
Where a name gives a salt, the structure may show the parent alone.

Columns and labels:
ovarian cancer = settings: clinical; cited from earlier work
human pulmonary tumors = settings: cited from earlier work
human renal tumors = settings: cited from earlier work
[1] = system: advanced ovarian adenocarcinoma; settings: concurrent use with cyclophosphamide, methotrexate and 5-fluorouracil; cited from earlier work
[2] = system: N.C.I. animal anti-tumor screening systems; settings: in vivo; cited from earlier work
human disease = settings: in vivo; cited from earlier work
A-204 rhabdomysarcoma = test: Inhibition of colony formation by human tumor cell line A-204 (rhabdomysarcoma), long-term exposure; assay type: cell-based; settings: Homo sapiens, A204, 216 h, 9 days, read-out: Percent survival (number of colonies in test dishes to colonies in control dishes times 100)
Description: (§1) Cytotoxic activity of O-HMM against in vitro human tumor cells was measured as inhibition of colony formation and the results expressed as a ratio of the number of colonies in test dishes to number of control dishes, times 100 (Table 4).
(§2) Inhibition of colony formation by human tumor
(§3) ^a Percent survival as measured by the number of colonies in test

A-498 renal carcinoma = test: Inhibition of colony formation by human tumor cell line A-498 (renal carcinoma), long-term exposure; assay type: cell-based; settings: Homo sapiens, A498, 216 h, 9 days, read-out: Percent survival (number of colonies in test dishes to colonies in control dishes times 100)
Description: as §1, §2, §3

A-101D melanoma = test: Inhibition of colony formation by human tumor cell line A-101D (melanoma), long-term exposure; assay type: cell-based; settings: Homo sapiens, A101D, 216 h, 9 days, read-out: Percent survival (number of colonies in test dishes to colonies in control dishes times 100)
Description: as §1, §2, §3

A-549 lung carcinoma = test: Inhibition of colony formation by human tumor cell line A-549 (lung carcinoma), long-term exposure; assay type: cell-based; settings: Homo sapiens, A549, 216 h, 9 days, read-out: Percent survival (number of colonies in test dishes to colonies in control dishes times 100)
Description: as §1, §2, §3

[3] = vs HMM; background statement; cited from earlier work
[4] = 150 ug/ml, solubility may be limiting
[5] = 175 ug/ml, solubility may be limiting
[6] = 225 ug/ml, solubility may be limiting

## CN(C)c1nc(N(C)C)nc(N(C)C)n1 [HMM, hexamethylmelamine]
Ovarian cancer
  activity against ovarian cancer: significant activity against ovarian cancer
Human pulmonary tumors
  activity against human pulmonary tumors in mice: active
Human renal tumors
  activity against human renal tumors in mice: active
[1]
  effectiveness against advanced ovarian adenocarcinoma: effective against advanced ovarian adenocarcinoma
[2]
  activity in most N.C.I. animal anti-tumor screening systems: no demonstrated activity
Human disease
  activity against human disease: demonstrated activity against human disease

## CN(C)c1nc(N(C)C)nc(N(C)C)n1 [HMM.HCl, reference compound]
A-204 rhabdomysarcoma; 20 ug/ml
  viability at 20 µg/mL: 104 ± 12%
A-204 rhabdomysarcoma; 25 ug/ml
  viability at 25 µg/mL: 85 ± 8%
A-204 rhabdomysarcoma; 50 ug/ml
  viability at 50 µg/mL: 78 ± 15%
A-204 rhabdomysarcoma; 75 ug/ml
  viability at 75 µg/mL: 62 ± 24%
A-204 rhabdomysarcoma; 100 ug/ml
  viability at 100 µg/mL: 55 ± 27%
A-204 rhabdomysarcoma; [4]
  viability at 150 µg/mL: 35 ± 29%
A-204 rhabdomysarcoma; [5]
  viability at 175 µg/mL: 38 ± 26%
A-204 rhabdomysarcoma; 200 ug/ml
  viability at 200 µg/mL: 38 ± 21%
A-204 rhabdomysarcoma; [6]
  viability at 225 µg/mL: 40 ± 28%
A-498 renal carcinoma; 20 ug/ml
  viability at 20 µg/mL: 97 ± 6%
A-498 renal carcinoma; 25 ug/ml
  viability at 25 µg/mL: 90 ± 12%
A-498 renal carcinoma; 50 ug/ml
  viability at 50 µg/mL: 75 ± 8%
A-498 renal carcinoma; 75 ug/ml
  viability at 75 µg/mL: 61 ± 12%
A-498 renal carcinoma; 100 ug/ml
  viability at 100 µg/mL: 50 ± 12%
A-498 renal carcinoma; [4]
  viability at 150 µg/mL: 42 ± 18%
A-498 renal carcinoma; [5]
  viability at 175 µg/mL: 43 ± 25%
A-498 renal carcinoma; 200 ug/ml
  viability at 200 µg/mL: 42 ± 19%
A-498 renal carcinoma; [6]
  viability at 225 µg/mL: 41 ± 8%
A-101D melanoma; 20 ug/ml
  viability at 20 µg/mL: 101 ± 4%
A-101D melanoma; 25 ug/ml
  viability at 25 µg/mL: 98 ± 11%
A-101D melanoma; 50 ug/ml
  viability at 50 µg/mL: 92 ± 13%
A-101D melanoma; 75 ug/ml
  viability at 75 µg/mL: 73 ± 5%
A-101D melanoma; 100 ug/ml
  viability at 100 µg/mL: 53 ± 11%
A-101D melanoma; [4]
  viability at 150 µg/mL: 37 ± 8%
A-101D melanoma; [5]
  viability at 175 µg/mL: 38 ± 9%
A-101D melanoma; 200 ug/ml
  viability at 200 µg/mL: 33 ± 8%
A-101D melanoma; [6]
  viability at 225 µg/mL: 29 ± 6%
A-549 lung carcinoma; 10 ug/ml
  viability at 10 µg/mL: 95 ± 5%
A-549 lung carcinoma; 20 ug/ml
  viability at 20 µg/mL: 93 ± 4%
A-549 lung carcinoma; 25 ug/ml
  viability at 25 µg/mL: 91 ± 12%
A-549 lung carcinoma; 50 ug/ml
  viability at 50 µg/mL: 95 ± 8%
A-549 lung carcinoma; 75 ug/ml
  viability at 75 µg/mL: 87 ± 11%
A-549 lung carcinoma; 100 ug/ml
  viability at 100 µg/mL: 86 ± 9%
A-549 lung carcinoma; [4]
  viability at 150 µg/mL: 74 ± 17%
A-549 lung carcinoma; [5]
  viability at 175 µg/mL: 59 ± 23%
A-549 lung carcinoma; 200 ug/ml
  viability at 200 µg/mL: 61 ± 19%

## CNc1nc(N(C)C)nc(N(C)C)n1 [pentamethylmelamine]
[3]
  solubility compared with HMM: more soluble
